This note sets out measurements from patent publication US9790545B2, “Method for determining the neurodevelopmental toxicity of a compound in vitro” (UNIVERSITEIT MAASTRICHT, priority 2012, dated 2017).

Like-named read-outs stand apart in the source and are kept apart here.

In data set [1] the test system is neural outgrowth of embryoid bodies from murine embryonic stem cells (ES-D3).
Data set [2] concerns 1700011H14Rik. As to the kind of experiment: Relative gene expression in neural differentiation culture of murine embryonic stem cells (ES-D3), microarray. The following applies: exposed from day 3, harvested day 4 (24 h exposure), ratio to reference value, concentration coded in label (L low, H high, Table 3).
In data set [3] the test system is neural outgrowth of embryoid bodies from murine embryonic stem cells (ES-D3). As to the kind of experiment: Golden standard classification of neurodevelopmental toxicity (morphological scoring of neural outgrowth). To be noted: for Golden standard: tox / nontox at the concentration coded in the label (Table 3); for Neuro-developmentally toxic: yes / no at the concentration (μM) given in Table 3.

In data set [4] the test system is Hoxb6. Nature of the data set: Relative gene expression in neural differentiation culture of murine embryonic stem cells (ES-D3), microarray. The following applies: exposed from day 3, harvested day 4 (24 h exposure), ratio to reference value, concentration coded in label (L low, H high, Table 3).
In data set [5] the test system is Nrk. The data set is described as above. The following applies: exposed from day 3, harvested day 4 (24 h exposure), ratio to reference value, concentration coded in label (L low, H high, Table 3).
For data set [6], the system named is Tph1. The data set is described as above. The following applies: exposed from day 3, harvested day 4 (24 h exposure), ratio to reference value, concentration coded in label (L low, H high, Table 3).

Take `CCCCC(O)(Cn1cncn1)c1ccc(Cl)cc1Cl` (stereo not shown) [hexL, Hexaconazole]: in data set [1], the Golden standard result was “nontox” and the Neuro-developmentally toxic result is listed as “no”.
As for `NC(=O)N1c2ccccc2C=Cc2ccccc21` [cbzL, Carbamazepine], the “relative expression value 1700011H14Rik” value in data set [2] was found to be 0.870; in data set [2] (listed as cbzH), 0.533. The Golden standard entry in data set [3] is “nontox”; in data set [3] (listed as cbzH) it was “tox”. Also, the Neuro-developmentally toxic entry in data set [3] is reported as “no”; in data set [3] (listed as cbzH), “yes”. Further, the “relative expression value Hoxb6” value was 0.991 in data set [4] and 0.950 in data set [4] (listed as cbzH). Further, the entries for the “relative expression value Nrk” value in data set [5] and in data set [5] (listed as cbzH) were 1.055 and 1.217, respectively. The “relative expression value Tph1” value in data set [6] is reported as 0.945; in data set [6] (listed as cbzH), 0.751.
Turning to `CC=O` [aceL, Acetaldehyde], the entries for the “relative expression value 1700011H14Rik” value in data set [2] and in data set [2] (listed as aceH) were 1.175 and 0.562, respectively. For the same compound, the figures for the Golden standard result in data set [3] and in data set [3] (listed as aceH) were “nontox” and “tox”, respectively. Besides, the Neuro-developmentally toxic entry is “no” in data set [3] and “yes” in data set [3] (listed as aceH). Also, the “relative expression value Hoxb6” value in data set [4] is 0.917; in data set [4] (listed as aceH), 1.100. Moreover, the “relative expression value Nrk” value in data set [5] worked out at 0.909; in data set [5] (listed as aceH), 1.290. Further, the entries for the “relative expression value Tph1” value in data set [6] and in data set [6] (listed as aceH) were 0.891 and 1.094, respectively.
Take `CCCC(CCC)C(=O)O` [VpaL, Valproic acid]: the “relative expression value 1700011H14Rik” value worked out at 0.962 in data set [2] and 0.316 in data set [2] (listed as VpaH). Moreover, the Golden standard result was “nontox” in data set [3] and “tox” in data set [3] (listed as VpaH). Also, the Neuro-developmentally toxic entry in data set [3] is recorded as “no”; in data set [3] (listed as vpaH), “yes”. Moreover, the entries for the “relative expression value Hoxb6” value in data set [4] and in data set [4] (listed as VpaH) were 0.807 and 0.721, respectively. Moreover, the entries for the “relative expression value Nrk” value in data set [5] and in data set [5] (listed as VpaH) were 0.914 and 1.518, respectively. The “relative expression value Tph1” value was 0.944 in data set [6] and 1.130 in data set [6] (listed as VpaH).
As for Methylmercury chloride [mehgH], the “relative expression value 1700011H14Rik” value in data set [2] is on record as 1.665. In data set [3], the Golden standard result is “tox” and the Neuro-developmentally toxic result was “yes”. Also, the “relative expression value Hoxb6” value in data set [4] is 1.302. In data set [5], the “relative expression value Nrk” value is 0.719. In addition, the “relative expression value Tph1” value in data set [6] came to 1.116.
Turning to `O=C1NC(=O)C(c2ccccc2)(c2ccccc2)N1` [pheL, Phenytoin], the “relative expression value 1700011H14Rik” value in data set [2] stood at 1.146; in data set [2] (listed as pheH), 0.995. In addition, the results for the Golden standard entry in data set [3] and in data set [3] (listed as pheH) were “nontox” and “tox”, respectively. In addition, the Neuro-developmentally toxic entry is listed as “no” in data set [3] and “yes” in data set [3] (listed as pheH). The “relative expression value Hoxb6” value in data set [4] is on record as 0.839; in data set [4] (listed as pheH), 0.840. Besides, the results for the “relative expression value Nrk” value in data set [5] and in data set [5] (listed as pheH) were 0.766 and 0.781, respectively. In addition, the “relative expression value Tph1” value in data set [6] was 0.817; in data set [6] (listed as pheH), 0.781.
Regarding `CC1(C)S[C@@H]2[C@H](NC(=O)Cc3ccccc3)C(=O)N2[C@H]1C(=O)[O-].[Na+]` [pengL, Penicillin G], in data set [3], the Golden standard entry is given as “nontox” and the Neuro-developmentally toxic entry was “no”.
